Experiment [1] deals with HUVEC. The experiment is described as follows: HUVEC attachment to SAM spots presenting immobilized VR-BP. The class given is cell-based, human. The conditions noted are these: immobilized 1% VR-BP vs scrambled peptide, highest GRGDSP densities, 1 hour. The procedure:
(§1) Passage 2 HUVECs were expanded at low cell density (less than 70% confluence) on tissue culture polystyrene to no more than 14 population doublings. During HUVEC expansion, cells were cultured in medium 199 (m199, Mediatech, Manassas, Va.) containing 1% penicillin/streptomycin (Hyclone, Logan, Utah) and supplemented with Clonetics EGM-2 BullitKit (Lonza Walkersville, Inc., Walkersville, Md.) containing Hydrocortisone, hFGF-B, VEGF, R3-IGF-1, Ascorbic Acid, Heparin, FBS, hEGF, GA-1000 growth supplements. NIH 3T3 cells were expanded in Dulbecco's modified eagles medium (DMEM, Mediatech, Manassas, Va.) containing 1% penicillin/streptomycin and supplemented with 5% cosmic calf serum (Hyclone, Logan, Utah). Before seeding on SAM arrays, HUVECs in cell culture flasks were starved for 24 hours in medium containing 2% FBS and then removed from the plate using a 0.05% trypsin solution and resuspended in m199 with 2% FBS. Cell suspension was seeded onto SAM arrays in sterile polystyrene Petri dishes and incubated in a humid environment at 37° C. and 5% CO2. After allowing cells to attach for ˜1 hr, arrays were dipped in warm m199 with 2% FBS to remove loosely attached cells and then transferred to a rectangular multidish (Thermo Scientific/Nunc, Rochester, N.Y.) containing warm media with 2% FBS and imaged ˜2 hours later serving as “0 hr”. […]

Experiment [2] deals with HUVEC. Put plainly: HUVEC survival and proliferation on SAM arrays presenting immobilized VR-BP with VEGF / SU5416. The class given is cell-based, human. The procedure:
as §1

The test system of the next experiment is NIH 3T3 fibroblasts. The experiment is described as follows: NIH 3T3 attachment to SAM spots presenting immobilized VR-BP. The conditions noted are these: immobilized 1% VR-BP vs scrambled peptide, 1 hour. The class given is cell-based. The procedure: as §1
Experiment [3] has as its system HUVEC. The experiment is described as follows: HUVEC proliferation (Click-it EdU) in response to soluble morphogens on SAM arrays. As to conditions: soluble, 10 ng/ml, 24 hours, m199 with 2% FBS, highest ligand density spots. The class given is cell-based, human.
Method: Specifically, SAM array spots presenting mixed ligands were prepared as described above. SAM arrays presenting varied ligand densities of covalently immobilized VEGF receptor-binding peptide ([sequence], here referred to as “VR-BP”; SEQ ID NO:17) and varied ligand densities of the fibronectin-derived cell adhesion peptide (GRGDSP, SEQ ID NO:18) were used to probe for changes in HUVEC attachment, proliferation and tubulogenesis. Control over individual ligand density was achieved by mixing scrambled VR-BP and mutant GRGESP (SEQ ID NO:19) with functional VR-BP or GRGDSP (SEQ ID NO:18) peptides, respectively. Therefore, in a typical SAM array, SAMs were locally formed within spots using an alkanethiolate mixture of 94% HS—C11-EG3-OH and 6% HS—C11-EG6-COOH to create substrates with a total of 6% carboxylate groups for peptide conjugation. Next, to create a spot presenting 5% GRGDSP (SEQ ID NO:18) and 1% VR-BP, a 300 μM peptide solution with 250 μM GRGDSP (SEQ ID NO:18) and 50 μM VR-BP was used during peptide conjugation. Likewise, to create a spot presenting 2.5% GRGDSP (SEQ ID NO:18) and 0.1% VR-BP, a 300 μM peptide solution with 125 μM GRGDSP (SEQ ID NO:18), 125 μM GRGESP (SEQ ID NO:19), 5 μM VR-BP and 45 μM scrambled peptide was used during peptide conjugation. In this manner, the amount of active ligand could be varied between spots while holding the total ligand content constant.
Passage 2 HUVECs were expanded at low cell density (less than 70% confluence) on tissue culture polystyrene to no more than 14 population doublings. During HUVEC expansion, cells were cultured in medium 199 (m199, Mediatech, Manassas, Va.) containing 1% penicillin/streptomycin (Hyclone, Logan, Utah) and supplemented with Clonetics EGM-2 BullitKit (Lonza Walkersville, Inc., Walkersville, Md.) containing Hydrocortisone, hFGF-B, VEGF, R3-IGF-1, Ascorbic Acid, Heparin, FBS, hEGF, GA-1000 growth supplements. […]
Experiment [4] deals with HUVEC. Put plainly: Endothelial tubulogenesis on SAM spots with matrigel overlay. The class given is cell-based, human. The procedure:
Specifically, SAM arrays seeded overnight with 50,000 HUVECs/cm^2 were rinsed with warm media and then flipped over onto cold matrigel (Growth factor reduced matrigel, BD Biosciences, Bedford, Mass.) in a rectangular multidish well containing varied concentrations of soluble recombinant VEGF. Matrigel was allowed to gel for 5 minutes, and then the array and matrigel layer were covered with warm m199 with 2% FBS. Arrays were then placed in a TIZ Tokai Hit incubated, humidified stage at 37° C. and 5% CO2 and each array spot was imaged using phase contrast microscopy every 15 minutes for 48 hours. Image analysis was performed using NIS Elements software. The total cell area and length of individual objects were measured in each array spot at 24 hours after seeding. To measure mean length of capillary-like structures, each image was contrasted and thresholded using a standard method to isolate elongated objects for automated length measurements. All objects with a length less than 20 μm were excluded from length measurements. To measure total area occupied by cells, the images were contrasted and thresholded to isolate all cell bodies from the background for automated area measurements. Objects with a length less than 10 μm were excluded from area measurements. Tubulogenesis in each spot was quantified by normalizing the mean length of objects to total cell area in each array spot. SAM array spots were imaged using a Nikon Eclipse Ti inverted microscope with a 10×PhL objective, equipped with Nikon's Perfect Focus System. 10× images were stitched using Nikon NIS Elements software to capture entire array spots and cell counting was performed using the cell counting application in NIS Elements. Statistical analysis of all data sets was performed using a two-tailed student's t-test, where p<0.05 is used to denote statistical significance.

Experiment [5] relates to HUVEC. Put plainly: HUVEC attachment to SAM spots presenting mutant ligand (Example 8). The class given is cell-based, human. The procedure: Specifically, SAM array spots presenting mixed ligands were prepared as described above. SAM arrays presenting varied ligand densities of covalently immobilized VEGF receptor-binding peptide ([…], here referred to as “VR-BP”; SEQ ID NO:17) and varied ligand densities of the fibronectin-derived cell adhesion peptide (GRGDSP, SEQ ID NO:18) were used to probe for changes in HUVEC attachment, proliferation and tubulogenesis. Control over individual ligand density was achieved by mixing scrambled VR-BP and mutant GRGESP (SEQ ID NO:19) with functional VR-BP or GRGDSP (SEQ ID NO:18) peptides, respectively. Therefore, in a typical SAM array, SAMs were locally formed within spots using an alkanethiolate mixture of 94% HS—C11-EG3-OH and 6% HS—C11-EG6-COOH to create substrates with a total of 6% carboxylate groups for peptide conjugation. Next, to create a spot presenting 5% GRGDSP (SEQ ID NO:18) and 1% VR-BP, a 300 μM peptide solution with 250 μM GRGDSP (SEQ ID NO:18) and 50 μM VR-BP was used during peptide conjugation. […] As mentioned previously, ligand concentrations were measured using UV/Vis since all peptides either contained residues that absorbed strongly at 280 nm, or were engineered to contain tryptophan residues in the poly-glycine tail. […]

The next experiment has as its system hMSC. The experiment is described as follows: hMSC surface coverage over time on SAM spots presenting GRGDSP with BR-BP and HPG-BP. The class given is cell-based, human. As to conditions: low GRGDSP density SAM spots, cultured 20 days. The source says:
In this SAM array approach, each spot was designed to contain the same total molar density (mol/cm^2) of peptide from spot to spot. Therefore, control over individual peptide density was achieved by mixing scrambled BR-BP and HPG-BP and mutant GRGESP (SEQ ID NO:19) peptides with functional BR-BP, HPG-BP or GRGDSP (SEQ ID NO:18) peptides, respectively. Therefore, in a typical SAM array, SAMs were locally formed within spots using an alkanethiolate mixture of 95% HS—C11-EG3-OH and 5% HS—C11-EG6-COOH to create substrates with a total of 5% carboxylate groups for peptide conjugation. Here, “X %” refers to the mole percent of alkanethiolate present during SAM formation and subsequently the approximate amount of an alkanethiolate present on the surface after SAM formation. To regulate the density of active peptide present in each spot, mutant and scramble versions of peptides were included during peptide conjugation. […] As mentioned previously, peptide concentrations were easily measured using UV/Vis since all peptides either contained residues that absorbed strongly at 280 nm, or were engineered to contain tryptophan residues in the poly-glycine tail. […]

Consider KLTWQELYQLKYKGI [VR-BP], for which, in the experiment on HUVEC [1], the HUVEC attachment entry is recorded as “significantly decreased”. Moreover, the HUVEC proliferation result with HUVEC [2] (immobilized 1% VR-BP, in presence of soluble VEGF, high and low ligand densities) is on record as “inhibited proliferation”. For the same substance, in the experiment with HUVEC [2] (immobilized VR-BP at 1% density, without soluble VEGF or in presence of SU5416), the HUVEC survival entry is listed as “decreased HUVEC survival”. Further, in the experiment with NIH 3T3 fibroblasts, the “NIH 3T3 attachment” value is “no effect”. Moreover, in the experiment on HUVEC [3], the “HUVEC proliferation (EdU incorporation) compared to cells without stimulation” value was “significant increases in proliferation”. Besides, the “tubulogenesis (average tubule length per total cell area)” value in the experiment on HUVEC [4] (1% VR-BP vs 0% VR-BP, presence and absence of soluble VEGF) is recorded as “increased tubulogenesis”. Moreover, the tubulogenesis result in the experiment with HUVEC [4] (1% VR-BP vs lower VR-BP surfaces, absence of soluble VEGF) is on record as “significantly increased”.

Consider “GRGESP [mutant peptide mixed with GRGDSP to control ligand density]”, for which the HUVEC attachment result in the experiment with HUVEC [5] was “did not promote HUVEC attachment”.

Regarding VEGF, in the experiment on HUVEC [3], the “HUVEC proliferation (EdU incorporation) compared to cells without stimulation” value was “increased HUVEC proliferation”. For the same substance, the “tubulogenesis (average tubule length per total cell area)” value with HUVEC [4] (soluble VEGF protein) is “decreased tubulogenesis”.

As to KIPKASSVPTEL [BR-BP], in the experiment on hMSC, the hMSC surface coverage entry was “maintained hMSC surface coverage”.

Values taken from patent publication US8642516B2, “Chemically-defined arrays for screening cell-substrate interactions” (Wisconsin Alumni Research Foundation, priority 2012, dated 2014).
